Assay results taken from patent US20230218566A1, “Composition and Method for Treating Chronic Pain” (Zelira Therapeutics Operations Pty Ltd, priority 2020, published 2023).

Assay: Pharmacokinetics of THC and CBD after oral MC formulation (Example 3)
Conditions: for Tmax / AUC(0-t) / Cmax / half-life: human, plasma; for dose response of Cmax and AUC0-8 with increasing doses: oral doses 2.5 to 12.5 mg
[1] = high fat meal 30 minutes before 2.5 mg dose versus fasted
[2] = oral, delay of Tmax by high fat meal, high fat meal 30 minutes before 2.5 mg dose versus fasted
[3] = po, AUC0-8, 2.5 mg: single oral dose 2.5 mg THC/2.5 mg CBD after 12 hour fast (day 1)
[4] = po, AUC0-8, 5 mg: single oral dose 5 mg THC/5 mg CBD
[5] = po, AUC0-8, 7.5 mg: single oral dose 7.5 mg THC/7.5 mg CBD
[6] = po, 2.5 mg fed: single oral dose 2.5 mg THC/2.5 mg CBD 30 minutes after high fat meal (day 8)
[7] = po, 2.5 mg: single oral dose 2.5 mg THC/2.5 mg CBD after 12 hour fast (day 1)
[8] = po, 5 mg: single oral dose 5 mg THC/5 mg CBD
[9] = po, 7.5 mg: single oral dose 7.5 mg THC/7.5 mg CBD
[10] = po, Tmax, 2.5 mg fed: single oral dose 2.5 mg THC/2.5 mg CBD 30 minutes after high fat meal (day 8)
[11] = po, Tmax, 2.5 mg: single oral dose 2.5 mg THC/2.5 mg CBD after 12 hour fast (day 1)
[12] = po, Tmax, 5 mg: single oral dose 5 mg THC/5 mg CBD
[13] = po, Tmax, 7.5 mg: single oral dose 7.5 mg THC/7.5 mg CBD
[14] = po, t½ (did not change with increasing dose), across doses 2.5 to 12.5 mg
[15] = po, t½, 2.5 mg fed: single oral dose 2.5 mg THC/2.5 mg CBD 30 minutes after high fat meal (day 8)
[16] = po, t½, 2.5 mg: single oral dose 2.5 mg THC/2.5 mg CBD after 12 hour fast (day 1)
[17] = po, t½, 5 mg: single oral dose 5 mg THC/5 mg CBD
[18] = po, t½, 7.5 mg: single oral dose 7.5 mg THC/7.5 mg CBD

SMILES	effect of high fat meal on Cmax and AUC0-8 [1]	Tmax [2] [h]	AUC(0-t) [3] [ng·h/mL]	AUC(0-t) [4] [ng·h/mL]	AUC(0-t) [5] [ng·h/mL]	Cmax [6] [ng/mL]	Cmax [7] [ng/mL]	Cmax [8] [ng/mL]	Cmax [9] [ng/mL]	Tmax [10] [h]	Tmax [11] [h]	Tmax [12] [h]	Tmax [13] [h]	half-life [14] [min]	half-life [15] [min]	half-life [16] [min]	half-life [17] [min]	half-life [18] [min]	dose response of Cmax and AUC0-8 with increasing doses	other results
C=C(C)[C@@H]1CCC(C)=C[C@H]1c1c(O)cc(CCCCC)cc1O [CBD, cannabidiol]	significantly increased	≥ 1	1.76 ± 0.84	5.09 ± 1.8	7.47 ± 2.95	0.99 ± 0.45	0.62 ± 0.19	1.51 ± 0.55	2.26 ± 0.95	2.78	1.83 ± 1	1.75 ± 1.04	1.64 ± 1.18	216	177 ± 39.6	255 ± 32.4	272 ± 145	208 ± 51.6	linear dose response relationship	AUC(0-t) (po, AUC0-8, 2.5 mg fed: single oral dose 2.5 mg THC/2.5 mg CBD 30 minutes after high fat meal (day 8)): 3.67 ng·h/mL
CCCCCc1cc(O)c2c(c1)OC(C)(C)[C@@H]1CCC(C)=C[C@@H]21 [THC, Δ^9-tetrahydrocannabinol]	significantly increased	≥ 1	2 ± 1.38	6.04 ± 2.07	10.6 ± 3.84	1.52 ± 0.55	0.83 ± 0.29	2.56 ± 1.7	3.84 ± 1.62	2.78 ± 1.2	1.67 ± 1.09	2.06 ± 1.32	1.36 ± 0.63	150	158 ± 25.8	156 ± 31.8	148 ± 52.8	145 ± 37.2	linear dose response relationship	AUC0-8 (2.5 mg fed: single oral dose 2.5 mg THC/2.5 mg CBD 30 minutes after high fat meal (day 8)): 5.86 ± 2.07 (9) ng/mL*h
